Results published in patent publication EP1105136B1, “METHOD FOR TREATING OCULAR NEOVASCULAR DISEASES” (Novartis AG, priority 1998, dated 2000).

What was measured:
insulin receptor = molecular target: T1, insulin receptor (Homo sapiens, UniProt P06213); experiment: cellular autophosphorylation assay in transfected Chinese hamster ovary cells; assay type: cell-based; conditions: Chinese hamster ovary cells transfected with RTK gene
T1 construct: expressed in transfected cells; host or cells: Chinese hamster ovary cells

VEGF receptors = experiment: as above; assay type: cell-based; conditions: Chinese hamster ovary cells transfected with RTK gene
Protocol: (§1) In vivo activity requires drugs to enter cells and therefore agents are tested in cellular autophosphorylation assays, using Chinese hamster ovary cells transfected with one of several RTK genes.

c-Kit = molecular target: T2, c-Kit (Homo sapiens, UniProt P10721); experiment: as above; assay type: cell-based; conditions: Chinese hamster ovary cells transfected with RTK gene
T2 construct: expressed in transfected cells; host or cells: Chinese hamster ovary cells
Protocol: as §1

PDGF receptors = experiment: as above; assay type: cell-based; conditions: Chinese hamster ovary cells transfected with RTK gene
Protocol: as §1

Flk-1 = Flk-1 (Mus musculus, UniProt P35918); conditions: mouse versus human VEGF receptor 2
[1] = system: choroidal neovascularization; experiment: laser-induced choroidal neovascularization in mice; conditions: 50 mg/kg/day by gavage, two weeks after laser
[2] = system: retinal vessels in adult mice; experiment: effect on retinal vessels in adult mice; assay type: in vivo, C57BL6J mice; conditions: 50 mg/kg/day
[3] = system: retinal neovascularization in mice with ischemic retinopathy; experiment: retinal neovascularization in mice with oxygen-induced ischemic retinopathy; assay type: in vivo, C57/BL6J mice
[4] = system: retinal vascular development; experiment: retinal vascular development in neonatal mice; assay type: in vivo, C57/BL6J mice
Protocol: Litters of newborn C57/BL6J mice are divided into treatment and control groups which received daily subcutaneous injections of 10 mg/kg of drug or vehicle, respectively. At P7 or P10, mice are anesthetized with ether, and perfused with 1 ml of phosphate-buffered saline containing 50 mg/ml of fluorescein-labeled dextran (2x10^6 average mw, Sigma, St. Louis, MO).. The eyes are removed and fixed for 1 hour in 10% phosphate-buffered formalin. The cornea and lens are removed and the entire retina is carefully dissected from the eyecup, radially cut from the edge of the retina to the equator in all 4 quadrants, and flat-mounted in Aquamount. with photoreceptors facing upward.

c-erbB2 = c-erbB2 (Homo sapiens, UniProt P04626); experiment: cellular autophosphorylation assay in transfected Chinese hamster ovary cells; assay type: cell-based; conditions: Chinese hamster ovary cells transfected with RTK gene
[5] = P17 mice, 2.5 mg/kg twice a day
[6] = P17 mice, 25 mg/kg twice a day, gavage, 5 days

T2 sequence (P10721 26-976): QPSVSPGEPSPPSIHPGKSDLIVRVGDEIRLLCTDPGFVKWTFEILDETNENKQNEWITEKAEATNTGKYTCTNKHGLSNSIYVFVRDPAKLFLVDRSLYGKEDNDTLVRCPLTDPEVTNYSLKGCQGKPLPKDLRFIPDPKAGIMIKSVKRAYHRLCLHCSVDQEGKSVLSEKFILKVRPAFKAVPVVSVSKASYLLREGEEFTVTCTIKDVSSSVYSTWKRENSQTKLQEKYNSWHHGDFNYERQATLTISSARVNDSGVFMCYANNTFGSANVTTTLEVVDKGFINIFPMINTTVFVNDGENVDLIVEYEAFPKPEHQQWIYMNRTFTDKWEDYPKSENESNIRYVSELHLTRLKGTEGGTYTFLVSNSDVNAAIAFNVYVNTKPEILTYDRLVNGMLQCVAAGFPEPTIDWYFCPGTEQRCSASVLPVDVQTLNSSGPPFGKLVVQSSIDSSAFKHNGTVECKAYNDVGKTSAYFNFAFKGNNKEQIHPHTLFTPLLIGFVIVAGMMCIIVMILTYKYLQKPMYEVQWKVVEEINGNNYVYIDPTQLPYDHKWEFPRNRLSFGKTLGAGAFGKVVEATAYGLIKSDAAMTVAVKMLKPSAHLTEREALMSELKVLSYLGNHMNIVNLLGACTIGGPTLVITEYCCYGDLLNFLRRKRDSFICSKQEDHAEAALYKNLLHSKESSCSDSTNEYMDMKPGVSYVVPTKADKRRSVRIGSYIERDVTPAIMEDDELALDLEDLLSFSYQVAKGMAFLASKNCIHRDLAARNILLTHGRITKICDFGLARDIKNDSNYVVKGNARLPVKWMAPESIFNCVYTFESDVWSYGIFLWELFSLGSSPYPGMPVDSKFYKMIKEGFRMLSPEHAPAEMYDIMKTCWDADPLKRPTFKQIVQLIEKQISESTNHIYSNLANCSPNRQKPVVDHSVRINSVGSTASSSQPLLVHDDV
Sequence of Flk-1 (P35918 832-1160 limits assumed): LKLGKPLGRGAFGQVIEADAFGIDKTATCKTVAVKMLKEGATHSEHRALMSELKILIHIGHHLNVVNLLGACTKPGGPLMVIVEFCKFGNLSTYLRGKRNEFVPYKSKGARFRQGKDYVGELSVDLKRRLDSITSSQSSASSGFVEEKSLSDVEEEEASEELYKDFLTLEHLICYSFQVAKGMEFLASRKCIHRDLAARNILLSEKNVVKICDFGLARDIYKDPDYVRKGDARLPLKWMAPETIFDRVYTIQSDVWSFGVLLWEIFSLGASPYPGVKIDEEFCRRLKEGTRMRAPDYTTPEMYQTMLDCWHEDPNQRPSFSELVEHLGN
Sequence of c-erbB2 (P04626 23-1255): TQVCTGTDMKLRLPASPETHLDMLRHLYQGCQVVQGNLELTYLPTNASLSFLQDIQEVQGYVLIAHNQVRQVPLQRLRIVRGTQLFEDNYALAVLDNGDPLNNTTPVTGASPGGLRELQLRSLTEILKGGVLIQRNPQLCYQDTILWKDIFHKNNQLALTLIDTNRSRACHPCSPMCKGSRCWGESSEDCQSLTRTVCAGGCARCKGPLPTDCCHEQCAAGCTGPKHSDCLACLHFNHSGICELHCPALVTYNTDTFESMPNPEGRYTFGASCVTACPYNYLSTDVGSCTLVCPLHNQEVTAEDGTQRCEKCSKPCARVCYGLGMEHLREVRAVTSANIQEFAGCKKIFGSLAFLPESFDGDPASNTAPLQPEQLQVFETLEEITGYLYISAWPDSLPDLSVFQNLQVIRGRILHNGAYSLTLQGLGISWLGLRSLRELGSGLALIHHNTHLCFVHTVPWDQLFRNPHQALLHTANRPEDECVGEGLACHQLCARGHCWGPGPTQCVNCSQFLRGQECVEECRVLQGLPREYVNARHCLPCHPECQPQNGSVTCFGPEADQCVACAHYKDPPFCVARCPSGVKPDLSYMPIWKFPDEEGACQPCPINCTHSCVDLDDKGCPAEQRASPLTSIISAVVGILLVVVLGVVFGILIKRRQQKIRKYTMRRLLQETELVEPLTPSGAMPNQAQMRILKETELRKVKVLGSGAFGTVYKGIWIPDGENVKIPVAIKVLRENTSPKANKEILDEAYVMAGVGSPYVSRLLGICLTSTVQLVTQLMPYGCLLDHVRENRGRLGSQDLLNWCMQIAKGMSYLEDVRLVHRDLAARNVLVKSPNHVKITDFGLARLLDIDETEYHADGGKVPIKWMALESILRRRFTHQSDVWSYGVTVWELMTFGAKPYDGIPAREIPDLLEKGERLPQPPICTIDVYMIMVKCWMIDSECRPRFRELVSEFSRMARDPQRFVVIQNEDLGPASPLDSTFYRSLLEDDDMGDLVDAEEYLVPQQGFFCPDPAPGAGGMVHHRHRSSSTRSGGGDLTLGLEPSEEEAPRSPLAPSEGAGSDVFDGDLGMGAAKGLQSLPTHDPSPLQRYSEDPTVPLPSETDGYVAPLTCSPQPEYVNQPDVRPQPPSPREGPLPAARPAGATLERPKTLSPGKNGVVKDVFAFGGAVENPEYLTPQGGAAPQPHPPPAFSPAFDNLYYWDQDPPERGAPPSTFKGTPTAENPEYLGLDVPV
T1 sequence (P06213 28-1382, species assumed): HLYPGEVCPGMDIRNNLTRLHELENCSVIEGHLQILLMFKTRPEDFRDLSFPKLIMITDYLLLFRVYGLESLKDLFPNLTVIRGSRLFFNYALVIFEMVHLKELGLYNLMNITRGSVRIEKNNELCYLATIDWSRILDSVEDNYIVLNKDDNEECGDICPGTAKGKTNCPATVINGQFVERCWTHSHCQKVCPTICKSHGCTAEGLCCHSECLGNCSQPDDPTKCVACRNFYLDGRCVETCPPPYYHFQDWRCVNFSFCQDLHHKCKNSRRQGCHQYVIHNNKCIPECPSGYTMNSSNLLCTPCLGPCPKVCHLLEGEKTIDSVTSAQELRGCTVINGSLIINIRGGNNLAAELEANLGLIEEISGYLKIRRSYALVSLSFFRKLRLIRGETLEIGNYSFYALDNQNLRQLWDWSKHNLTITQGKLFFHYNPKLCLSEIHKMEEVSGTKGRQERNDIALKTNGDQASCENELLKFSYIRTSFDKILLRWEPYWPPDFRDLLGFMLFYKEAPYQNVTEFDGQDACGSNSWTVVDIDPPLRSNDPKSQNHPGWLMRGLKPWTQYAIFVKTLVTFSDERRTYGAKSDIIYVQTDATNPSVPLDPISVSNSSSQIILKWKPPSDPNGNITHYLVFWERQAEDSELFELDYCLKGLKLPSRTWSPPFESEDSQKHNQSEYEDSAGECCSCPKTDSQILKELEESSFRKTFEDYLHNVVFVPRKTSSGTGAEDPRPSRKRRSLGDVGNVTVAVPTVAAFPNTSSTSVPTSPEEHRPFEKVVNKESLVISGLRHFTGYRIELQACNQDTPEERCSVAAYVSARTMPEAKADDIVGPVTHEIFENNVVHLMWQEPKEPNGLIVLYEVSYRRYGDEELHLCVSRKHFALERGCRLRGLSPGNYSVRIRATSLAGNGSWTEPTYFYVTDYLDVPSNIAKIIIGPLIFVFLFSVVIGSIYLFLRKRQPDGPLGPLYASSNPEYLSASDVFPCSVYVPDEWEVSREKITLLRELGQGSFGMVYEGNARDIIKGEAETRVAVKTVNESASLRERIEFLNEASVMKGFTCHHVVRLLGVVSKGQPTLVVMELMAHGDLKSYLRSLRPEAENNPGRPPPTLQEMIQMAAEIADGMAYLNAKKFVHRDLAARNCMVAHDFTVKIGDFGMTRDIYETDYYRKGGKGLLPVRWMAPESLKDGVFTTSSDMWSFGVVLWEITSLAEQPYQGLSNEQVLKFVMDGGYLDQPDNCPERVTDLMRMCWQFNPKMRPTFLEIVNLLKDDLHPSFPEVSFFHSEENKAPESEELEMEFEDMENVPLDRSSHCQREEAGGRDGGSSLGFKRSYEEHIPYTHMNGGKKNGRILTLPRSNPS

| autophosphorylation (insulin receptor) | autophosphorylation (c-Kit) | less potent as an inhibitor of mouse VEGF receptor 2 compared to the human receptor (Flk-1) | overlying retinal vessels [1] | total area of endothelial staining in the retina or the appearance of retinal vessels compared to vehicle-treated mice [2] | autophosphorylation (c-erbB2) | Structure (SMILES) | autophosphorylation (VEGF receptors) | autophosphorylation (PDGF receptors) | choroidal neovascularization at the site of each laser-induced rupture of Bruch's membrane [1] | integrated area of lectin staining per lesion ([1]; n = 5) | staining in the inner nuclear layer ([3]; P17 mice, 0.25 mg/kg) | total endothelial staining in the retina ([3]; P17 mice, 0.25 mg/kg) | endothelial cell staining in the retina [3, 5] | endothelial staining in the inner nuclear layer [3, 5] | endothelial cell staining in the inner nuclear layer and outer plexiform layer (deep capillary bed) ([3]; P17 mice, 25 mg/kg twice a day) | endothelial cell staining within the retina [3, 6] | neovascularization (endothelial cells on the surface of the retina) [3, 6] | extension of retinal vessels ([4]; P7, injections of 10 mg/kg starting on P0) | extension of the superficial capillary bed ([4]; P10, injections of 10 mg/kg starting on P0) | endothelial staining in the retina ([3]; dose comparable to the highest dose of CGP 79787D) |
| --- | --- | --- | --- | --- | --- | --- | --- | --- | --- | --- | --- | --- | --- | --- | --- | --- | --- | --- | --- | --- |
| poor inhibitor | inhibits | about 10 fold | appeared normal | no difference | poor inhibitor | Clc1ccc(Nc2nnc(Cc3ccncc3)c3ccccc23)cc1 [CGP 79787D] | inhibits | inhibits | very little if any | 0.01124±0.001483 mm^2 | no identifiable decrease | decreased total endothelial staining in the retina that is not statistically significant | significantly less than vehicle-treated controls | some decrease | striking absence | dramatic decrease | complete inhibition | only extended about half way to the periphery | has not yet reached the edge of the retina | – |
| – | – | – | – | – | – | O=c1c(-c2ccc(O)cc2)coc2cc(O)cc(O)c12 [Genistein, 4', 5,7-trihydroxyisoflavone, reference compound] | – | – | – | – | – | – | – | – | – | – | – | – | – | no significant decrease |
